From BindingDB's records for doi:10.1016/j.ejmech.2013.03.032 (University of Messina, 2013)

Target: T1, Proteasome subunit beta type-1 (Homo sapiens, UniProt P20618)
T1 sequence (P20618 whole entry): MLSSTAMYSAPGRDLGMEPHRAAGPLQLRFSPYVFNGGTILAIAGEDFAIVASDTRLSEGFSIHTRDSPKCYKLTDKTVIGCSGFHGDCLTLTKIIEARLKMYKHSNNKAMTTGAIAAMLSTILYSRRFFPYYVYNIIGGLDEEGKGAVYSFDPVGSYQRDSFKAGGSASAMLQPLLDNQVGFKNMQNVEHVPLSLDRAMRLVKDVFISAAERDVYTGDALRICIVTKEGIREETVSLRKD
Test: Inhibition of human 20S proteasome post-glutamyl peptide hydrolyzing activity using Z-Leu-Leu-Glu-AMC as substrate measured over 10 mins by fluorescence assay

SMILES	Ki [µM]
CC(C)C[C@H](NC(=O)Cn1ccc2c(c1=O)CCCN2C)B(O)O	3.9
CC(C)C[C@H](NC(=O)[C@H](C)n1ccc2ncccc2c1=O)B(O)O	13.6
CC(C)C[C@H](NC(=O)Cn1ccc(Nc2ccccc2)cc1=O)B(O)O	5.14
CC(C)C[C@H](NC(=O)Cn1ccc(N2CCCCC2)cc1=O)B(O)O	1.42
CC(C)C[C@H](NC(=O)Cn1ccc(N2CCOCC2)cc1=O)B(O)O	0.52
CCN(CC)c1ccn(CC(=O)N[C@@H](CC(C)C)B(O)O)c(=O)c1	4.42
CC(C)C[C@H](NC(=O)Cn1ccccc1=O)B(O)O	1.38
